Results: article PMC10165273, “Itch receptor MRGPRX4 interacts with the receptor activity–modifying proteins” (The Journal of Biological Chemistry, 2023)
Where “and” joins values, the source holds several entries; their conditions need not be identical. Equal entries are not always repeated. Where two headings read alike, the source gives them in different places.

Biological target: T1, MRGPRX4 + RAMP2 (Homo sapiens, UniProt Q96LA9)
T1 construct: expressed in transfected cells; host or cells: HEK293T
Experiment: IP1 accumulation, MRGPRX4 coexpressed with RAMP2
Type: cell-based
Parameters: key to response to agonist, X4:ramp2.I:2: % IP1: mock-transfected unstimulated = 0%, fully stimulated MRGPRX4 = 100%; key to IP1 Basal / response to agonist, X4:ramp2.I:0.25 / response to agonist, X4:ramp2.I:0.5 / response to agonist, X4:ramp2.I:1: % IP1; unstimulated mock = 0%, fully stimulated MRGPRX4 = 100%
Settings: for IP1 accumulation (normalized): MRGPRX4+RAMP2 1pg 1:1, Supplementary Figure 5e, 5g
Method: HEK293T cells were transfected with 1 pg/cell of MRGPRX4 DNA, and the amount of DNA was kept constant at 2 pg/cell with pcDNA3.1(+) empty vector, unless otherwise specified. Twenty four hours after transfection, IP1 assay was performed as previously described ([51]). When applicable, cells were treated with 1 μM YM254890 (YM) or different concentrations of U73122 for 1 h prior to addition of agonist or buffer. After incubation for 2 h, HTRF reagents and IP1 calibration standards were added and incubated for 2 h in the dark at room temperature. Time-resolved fluorescence signals were read on the BioTek Synergy NEO-TRF Hybrid multi-mode reader (BioTek Instruments). All data were carried out in three independent experiments with three technical replicate each.
For RAMP DNA titration assay, HEK293T cells were cotransfected with a constant amount of 1 pg/cell of FLAG-MRGPRX4-GFP10-1D4 to which a serial dilution of 1, 0.75, 0.5, 0.25, or 0 pg/cell of each HA-RAMP-OLLAS was added. For a homogenous transfection of MRGPRX4, a master mix of MRGPRX4 DNA was made prior to addition of the RAMP DNA. […]
Data reduction, standard calibration, and transformation of HTRF data were performed as previously described ([51]). Normalized IP1 values were calculated relative to the unstimulated mock-transfected cells (set to 0%) and fully stimulated MRGPRX4 (alone if applicable) (set to 100%).

[1] = MRGPRX4 + RAMP2 0.25 pg (Fig. S3), normalized per agonist
[2] = MRGPRX4 + RAMP2 0.5 pg (Fig. S3), normalized per agonist
[3] = MRGPRX4 + RAMP2 1 pg (Fig. S3), normalized per agonist
[4] = MRGPRX4 + RAMP2 2 pg (Fig. S3), normalized per agonist
[5] = Tet-On MRGPRX4:RAMP2 Ratio 1:0.5 (Fig. S5E)
[6] = Tet-On MRGPRX4:RAMP2 Ratio 1:0.75 (Fig. S5E)
[7] = Tet-On MRGPRX4:RAMP2 Ratio 1:1 (Fig. S5E)

T1 sequence (Q96LA9 whole entry): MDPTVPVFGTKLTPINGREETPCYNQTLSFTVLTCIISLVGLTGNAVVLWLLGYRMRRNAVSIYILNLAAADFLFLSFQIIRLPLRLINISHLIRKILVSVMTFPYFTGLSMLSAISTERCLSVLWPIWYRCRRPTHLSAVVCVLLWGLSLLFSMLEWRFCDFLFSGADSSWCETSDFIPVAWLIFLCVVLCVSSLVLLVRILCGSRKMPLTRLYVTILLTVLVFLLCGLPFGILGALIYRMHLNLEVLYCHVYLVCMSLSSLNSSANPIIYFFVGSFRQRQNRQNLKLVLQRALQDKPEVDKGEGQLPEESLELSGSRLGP

With `CC(C)[C@H]1CC[C@H](C(=O)N[C@H](Cc2ccccc2)C(=O)O)CC1` [Nateglinide] the activation at 0.032 µM (2 h, ratio MRGPRX4:RAMP2 1:2, log [Nateglinide] (M) -7.49485, Fig S3b, read-out: IP1 accumulation) was 3.91%, the Emax (Figure 4a bottom, DNA ratio MRGPRX4:RAMP2 1:1, MRGPRX4 alone = 100, read-out: efficacy) was 35.1% and the EC50 (Figure 4a top, DNA ratio MRGPRX4:RAMP2 1:0.25, individual replicates, read-out: potency (converted)) was 9.57 µM and 9.23 µM (2×). For the same compound, the EC50 (Figure 4a top, DNA ratio MRGPRX4:RAMP2 1:0.5, individual replicates, read-out: potency (converted)) was 15.1 µM and 11.3 µM and 13.1 µM, the EC50 (Figure 4a top, DNA ratio MRGPRX4:RAMP2 1:0.75, individual replicates, read-out: potency (converted)) was 15.4 µM and 13.9 µM and 10.4 µM and the EC50 (Figure 4a top, DNA ratio MRGPRX4:RAMP2 1:1, individual replicates, read-out: potency (converted)) was 39.9 µM and 19.4 µM and 24.3 µM. The “response to agonist, X4:ramp2.I:0.25” value (Figure 4c-f, agonist 100µM, X4:ramp2 1:0.25, MRGPRX4 = 100) was 71.8475 and 74.3589, the “response to agonist, X4:ramp2.I:0.5” value (Figure 4c-f, agonist 100µM, X4:ramp2 1:0.5, MRGPRX4 = 100) was 61.7207 and 60.1764 and the “response to agonist, X4:ramp2.I:1” value (Figure 4c-f, agonist 100µM, X4:ramp2 1:1, MRGPRX4 = 100) was 42.7283 and 40.01. The “response to agonist, X4:ramp2.I:2” value (Figure 4c-f, agonist 100µM, X4:ramp2 1:2, MRGPRX4 = 100) was 16.754 and 20.2407, the “IP1 Basal” value [1] was 16.83 and the IP1 span (Emax minus basal) [1] was 84.5%. The EC50 (MRGPRX4 + RAMP2 0.25 pg (Fig. S3), normalized per agonist, read-out: IP1 EC50) was 11.8 µM, the Emax (MRGPRX4 + RAMP2 0.25 pg (Fig. S3), normalized per agonist, read-out: IP1 Emax) was 101% and the “IP1 Basal” value [2] was 13.85. The IP1 span (Emax minus basal) [2] was 55.7%, the Emax (MRGPRX4 + RAMP2 0.5 pg (Fig. S3), normalized per agonist, read-out: IP1 Emax) was 69.5% and the EC50 (MRGPRX4 + RAMP2 0.5 pg (Fig. S3), normalized per agonist, read-out: IP1 logEC50 (converted)) was 6.68 µM. For the same compound, the “IP1 Basal” value [3] was 8.724, the IP1 span (Emax minus basal) [3] was 37.8% and the Emax (MRGPRX4 + RAMP2 1 pg (Fig. S3), normalized per agonist, read-out: IP1 Emax) was 46.5%. For the same compound, the EC50 (MRGPRX4 + RAMP2 1 pg (Fig. S3), normalized per agonist, read-out: IP1 logEC50 (converted)) was 9.29 µM, the “IP1 Basal” value [4] was 3.623 and the IP1 span (Emax minus basal) [4] was 25.2%. The EC50 (MRGPRX4 + RAMP2 2 pg (Fig. S3), normalized per agonist, read-out: IP1 EC50) was 26.6 µM, the Emax (MRGPRX4 + RAMP2 2 pg (Fig. S3), normalized per agonist, read-out: IP1 Emax) was 28.8% and the “IP1 Basal” value [5] was 7.610. It also gave an IP1 span (Emax minus basal) [5] of 68%, an EC50 (Tet-On MRGPRX4:RAMP2 Ratio 1:0.5 (Fig. S5E), read-out: IP1 EC50) of 8.76 µM and an Emax (Tet-On MRGPRX4:RAMP2 Ratio 1:0.5 (Fig. S5E), read-out: IP1 Emax) of 75.6%. For the same compound, the “IP1 Basal” value [6] was 4.862, the IP1 span (Emax minus basal) [6] was 63.1% and the EC50 (Tet-On MRGPRX4:RAMP2 Ratio 1:0.75 (Fig. S5E), read-out: IP1 EC50) was 10.5 µM. For the same compound, the Emax (Tet-On MRGPRX4:RAMP2 Ratio 1:0.75 (Fig. S5E), read-out: IP1 Emax) was 67.9%, the EC50 (Tet-On MRGPRX4:RAMP2 Ratio 1:0.75 (Fig. S5E), read-out: IP1 logEC50 (converted)) was 10.5 µM and the “IP1 Basal” value [7] was 3.554. The IP1 span (Emax minus basal) [7] was 52.2%, the EC50 (Tet-On MRGPRX4:RAMP2 Ratio 1:1 (Fig. S5E), read-out: IP1 EC50) was 16.7 µM and the Emax (Tet-On MRGPRX4:RAMP2 Ratio 1:1 (Fig. S5E), read-out: IP1 Emax) was 55.7%. For the same compound, the “IP1 accumulation (normalized)” value (log [nateglinide] (M) -4) was 49.0479 and 42.2633 and 46.2108 and the “IP1 accumulation (normalized)” value (log [nateglinide] (M) -4.69897) was 35.8073 and 28.8485 and 29.8595.
